How the values were obtained:
[1] = system: Chenopodium album; assay: Upland field foliage treatment (Test Example 1); format: in vivo; conditions: foliage treatment 14th day after sowing, wettable powder, 1 kg active ingredient per hectare, evaluated 21st day after application
Source text: (§1) In the above evaluation criteria, the term “herbicidal effect” means evaluation to the objective weeds, and a higher index of the evaluation criteria means higher herbicidal effect on the objective weeds. On the other hand, a lower index of the evaluation criteria for the crops means higher safety to the crops. A plastic pot of 130 cm^2 was filled with upland soil. Then, seeds of weeds, namely, Setaria viridis, Digitaria adscendens, Chenopodium album and Stellaria media, and seeds of crops, namely, soybean (Glycine max) and wheat (Triticum aestivum), were sowed and covered with soil of about 1 cm thick. On the 14th day after the sowing, a wettable powder composition was prepared in accordance with Formulation Example 1, diluted with water in such an amount that the amount of the active ingredient became 1 kg per hectare, and then uniformly applied to the plant leaf surfaces. On the 21st day after the application, observation and evaluation were carried out according to the aforesaid criteria.

[2] = system: Digitaria adscendens; assay: Upland field foliage treatment (Test Example 1); format: in vivo; conditions: foliage treatment 14th day after sowing, wettable powder, 1 kg active ingredient per hectare, evaluated 21st day after application
Source text: as §1

[3] = system: Setaria viridis; assay: Upland field foliage treatment (Test Example 1); format: in vivo; conditions: foliage treatment 14th day after sowing, wettable powder, 1 kg active ingredient per hectare, evaluated 21st day after application
Source text: as §1

[4] = system: Stellaria media; assay: Upland field foliage treatment (Test Example 1); format: in vivo; conditions: foliage treatment 14th day after sowing, wettable powder, 1 kg active ingredient per hectare, evaluated 21st day after application
Source text: as §1

[5] = system: soybean (Glycine max); assay: Upland field foliage treatment (Test Example 1), crop; format: in vivo; conditions: foliage treatment 14th day after sowing, 1 kg active ingredient per hectare, evaluated 21st day, lower index = higher safety
Source text: as §1

[6] = system: wheat (Triticum aestivum); assay: as above; format: in vivo; conditions: foliage treatment 14th day after sowing, 1 kg active ingredient per hectare, evaluated 21st day, lower index = higher safety
Source text: as §1

[7] = system: Chenopodium album; assay: Upland soil treatment (Test Example 2); format: in vivo; conditions: soil surface treatment next day after sowing, wettable powder, 1 kg active ingredient per hectare, evaluated 21st day after application
Source text: (§2) In the above evaluation criteria, the term “herbicidal effect” means evaluation to the objective weeds, and a higher index of the evaluation criteria means higher herbicidal effect on the objective weeds. On the other hand, a lower index of the evaluation criteria for the crops means higher safety to the crops. A plastic pot of 130 cm^2 was filled with upland soil. Then, seeds of weeds, namely, Setaria viridis, Digitaria adscendens, Chenopodium album and Stellaria media, and seeds of crops, namely, soybean (Glycine max) and wheat (Triticum aestivum), were sowed and covered with soil of about 1 cm thick. On the next day after the sowing, a wettable powder composition was prepared in accordance with Formulation Example 1, diluted with water in such an amount that the amount of the active ingredient became 1 kg per hectare, and then uniformly applied to the soil surface. On the 21st day after the application, observation and evaluation were carried out according to the aforesaid criteria.

[8] = system: Digitaria adscendens; assay: Upland soil treatment (Test Example 2); format: in vivo; conditions: soil surface treatment next day after sowing, wettable powder, 1 kg active ingredient per hectare, evaluated 21st day after application
Source text: as §2

[9] = system: Setaria viridis; assay: Upland soil treatment (Test Example 2); format: in vivo; conditions: soil surface treatment next day after sowing, wettable powder, 1 kg active ingredient per hectare, evaluated 21st day after application
Source text: as §2

[10] = system: Stellaria media; assay: Upland soil treatment (Test Example 2); format: in vivo; conditions: soil surface treatment next day after sowing, wettable powder, 1 kg active ingredient per hectare, evaluated 21st day after application
Source text: as §2

[11] = system: soybean (Glycine max); assay: Upland soil treatment (Test Example 2), crop; format: in vivo; conditions: soil surface treatment next day after sowing, 1 kg active ingredient per hectare, evaluated 21st day, lower index = higher safety
Source text: as §2

[12] = system: wheat (Triticum aestivum); assay: Upland soil treatment (Test Example 2), crop; format: in vivo; conditions: soil surface treatment next day after sowing, 1 kg active ingredient per hectare, evaluated 21st day, lower index = higher safety
Source text: as §2

[13] = system: Echinochloa spp.; assay: Paddy field treatment (Test Example 3); format: in vivo, Echinochloa crusgalli; conditions: paddy pot, submerged 4 cm, dropped on water surface 10th day after transplantation, 1 kg active ingredient per hectare, evaluated 21st day
Protocol: (§3) In the above evaluation criteria, the term “herbicidal effect” means evaluation to the objective weeds, and a higher index of the evaluation criteria means higher herbicidal effect on the objective weeds. On the other hand, a lower index of the evaluation criteria for the crops means higher safety to the crops. A plastic pot of 130 cm^2 was filled with paddy soil, and soil puddling was carried out to adjust the submerged depth to 4 cm. Then, seeds of Echinochloa crusgalli, Monochoria vaginalis, Ammannia multiflora and Scirpus juncoides were sowed, and rice (Oryza […], variety: Koshihikari) of two-leaf period was transplanted by 2 rice plants of 1 stub per pot at a depth of 3 cm. On the 10th day after the transplantation, a wettable powder composition was prepared in accordance with Formulation Example 1, diluted with water in such an amount that the amount of the active ingredient became 1 kg per hectare, and then dropped to diffuse on the water surface. On the 21st day after the dropping, observation and evaluation were carried out according to the aforesaid criteria.

[14] = system: Ammannia multiflora; assay: Paddy field treatment (Test Example 3); format: in vivo; conditions: paddy pot, submerged 4 cm, dropped on water surface 10th day after transplantation, 1 kg active ingredient per hectare, evaluated 21st day
Protocol: as §3

[15] = system: Monochoria vaginalis; assay: Paddy field treatment (Test Example 3); format: in vivo; conditions: paddy pot, submerged 4 cm, dropped on water surface 10th day after transplantation, 1 kg active ingredient per hectare, evaluated 21st day
Protocol: as §3

[16] = system: Scirpus juncoides; assay: Paddy field treatment (Test Example 3); format: in vivo; conditions: paddy pot, submerged 4 cm, dropped on water surface 10th day after transplantation, 1 kg active ingredient per hectare, evaluated 21st day
Protocol: as §3

[17] = system: rice (Oryza sative, variety: Koshihikari); assay: Paddy field treatment (Test Example 3), crop; format: in vivo, Oryza sativa; conditions: transplanted rice two-leaf period, water surface treatment 10th day after transplantation, 1 kg active ingredient per hectare, evaluated 21st day, lower index = higher safety
Protocol: as §3

| SMILES | Herbicidal activity Chenopodium album [1] | Herbicidal activity Digitaria adscendens [2] | Herbicidal activity Setaria viridis [3] | Herbicidal activity Stellaria media [4] | Herbicidal activity Glycine max [5] | Herbicidal activity Triticum aestivum [6] | Herbicidal activity Chenopodium album [7] | Herbicidal activity Digitaria adscendens [8] | Herbicidal activity Setaria viridis [9] | Herbicidal activity Stellaria media [10] | Herbicidal activity Glycine max [11] | Herbicidal activity Triticum aestivum [12] | Herbicidal activity Echinochloa spp. [13] | Herbicidal activity Ammannia multiflora [14] | Herbicidal activity Monochoria vaginalis [15] | Herbicidal activity Scirpus juncoides [16] | Herbicidal activity Oryza sativa [17] |
| --- | --- | --- | --- | --- | --- | --- | --- | --- | --- | --- | --- | --- | --- | --- | --- | --- | --- |
| COC=C(Cn1nc(-c2c(Cl)cccc2Cl)c(Cl)c1C)C(=O)OC [Compound 23] | 4 (herbicidal effect of not less than 70% by weight and less than 90% by weight) | 4 (herbicidal effect of not less than 70% by weight and less than 90% by weight) | 4 (herbicidal effect of not less than 70% by weight and less than 90% by weight) | 5 (herbicidal effect of not less than 90% by weight) | 0 (herbicidal effect of not less than 0% by weight and less than 10% by weight) | 0 (herbicidal effect of not less than 0% by weight and less than 10% by weight) | 4 (herbicidal effect of not less than 70% by weight and less than 90% by weight) | 4 (herbicidal effect of not less than 70% by weight and less than 90% by weight) | 4 (herbicidal effect of not less than 70% by weight and less than 90% by weight) | 4 (herbicidal effect of not less than 70% by weight and less than 90% by weight) | 0 (herbicidal effect of not less than 0% by weight and less than 10% by weight) | 0 (herbicidal effect of not less than 0% by weight and less than 10% by weight) | 3 (herbicidal effect of not less than 50% by weight and less than 70% by weight) | 5 (herbicidal effect of not less than 90% by weight) | 4 (herbicidal effect of not less than 70% by weight and less than 90% by weight) | 3 (herbicidal effect of not less than 50% by weight and less than 70% by weight) | 0 (herbicidal effect of not less than 0% by weight and less than 10% by weight) |
| COC=C(Cn1nc(-c2ccccc2Cl)cc1C)C(=O)OC [Compound 4] | 5 (herbicidal effect of not less than 90% by weight) | 4 (herbicidal effect of not less than 70% by weight and less than 90% by weight) | 4 (herbicidal effect of not less than 70% by weight and less than 90% by weight) | 4 (herbicidal effect of not less than 70% by weight and less than 90% by weight) | 0 (herbicidal effect of not less than 0% by weight and less than 10% by weight) | 0 (herbicidal effect of not less than 0% by weight and less than 10% by weight) | 4 (herbicidal effect of not less than 70% by weight and less than 90% by weight) | 4 (herbicidal effect of not less than 70% by weight and less than 90% by weight) | 4 (herbicidal effect of not less than 70% by weight and less than 90% by weight) | 4 (herbicidal effect of not less than 70% by weight and less than 90% by weight) | 0 (herbicidal effect of not less than 0% by weight and less than 10% by weight) | 0 (herbicidal effect of not less than 0% by weight and less than 10% by weight) | 4 (herbicidal effect of not less than 70% by weight and less than 90% by weight) | 3 (herbicidal effect of not less than 50% by weight and less than 70% by weight) | 5 (herbicidal effect of not less than 90% by weight) | 4 (herbicidal effect of not less than 70% by weight and less than 90% by weight) | 0 (herbicidal effect of not less than 0% by weight and less than 10% by weight) |
| COC=C(Cn1nc(-c2ccc(Cl)c(Cl)c2)cc1C)C(=O)OC [Compound 10] | 4 (herbicidal effect of not less than 70% by weight and less than 90% by weight) | 4 (herbicidal effect of not less than 70% by weight and less than 90% by weight) | 4 (herbicidal effect of not less than 70% by weight and less than 90% by weight) | 4 (herbicidal effect of not less than 70% by weight and less than 90% by weight) | 0 (herbicidal effect of not less than 0% by weight and less than 10% by weight) | 0 (herbicidal effect of not less than 0% by weight and less than 10% by weight) | 4 (herbicidal effect of not less than 70% by weight and less than 90% by weight) | 5 (herbicidal effect of not less than 90% by weight) | 4 (herbicidal effect of not less than 70% by weight and less than 90% by weight) | 4 (herbicidal effect of not less than 70% by weight and less than 90% by weight) | 0 (herbicidal effect of not less than 0% by weight and less than 10% by weight) | 0 (herbicidal effect of not less than 0% by weight and less than 10% by weight) | 3 (herbicidal effect of not less than 50% by weight and less than 70% by weight) | 3 (herbicidal effect of not less than 50% by weight and less than 70% by weight) | 3 (herbicidal effect of not less than 50% by weight and less than 70% by weight) | 3 (herbicidal effect of not less than 50% by weight and less than 70% by weight) | 0 (herbicidal effect of not less than 0% by weight and less than 10% by weight) |
| COC=C(Cn1nc(-c2cc(C)ccc2C)c(Cl)c1C)C(=O)OC [Compound 19] | 5 (herbicidal effect of not less than 90% by weight) | 5 (herbicidal effect of not less than 90% by weight) | 4 (herbicidal effect of not less than 70% by weight and less than 90% by weight) | 4 (herbicidal effect of not less than 70% by weight and less than 90% by weight) | 0 (herbicidal effect of not less than 0% by weight and less than 10% by weight) | 0 (herbicidal effect of not less than 0% by weight and less than 10% by weight) | 4 (herbicidal effect of not less than 70% by weight and less than 90% by weight) | 5 (herbicidal effect of not less than 90% by weight) | 4 (herbicidal effect of not less than 70% by weight and less than 90% by weight) | 5 (herbicidal effect of not less than 90% by weight) | 0 (herbicidal effect of not less than 0% by weight and less than 10% by weight) | 0 (herbicidal effect of not less than 0% by weight and less than 10% by weight) | 5 (herbicidal effect of not less than 90% by weight) | 5 (herbicidal effect of not less than 90% by weight) | 5 (herbicidal effect of not less than 90% by weight) | 5 (herbicidal effect of not less than 90% by weight) | 1 (herbicidal effect of not less than 10% by weight and less than 30% by weight) |
